Results taken from patent publication US6407116B1, “Nitrogenous fused-ring compounds, process for the preparation of the same, and drugs” (Takeda Chemical Industries, Inc., priority 1997, dated 2002).
Where a name gives a salt, the structure may show the parent alone.

test system: not given; assay: not given; settings: not given

Compound	melting point [°C]
Cl.O=c1[nH]c(=O)n(CCCCN2CCC(c3c[nH]c4ccccc34)CC2)c2ccccc12	250 to 252
Cl.Cn1c(=O)c2ccccc2n(CCCN2CCC(OC(c3ccccc3)c3ccccc3)CC2)c1=O	127 to 128
Cl.O=c1c2ccccc2n(CCCCN2CCC(OC(c3ccccc3)c3ccccc3)CC2)c(=O)n1C1CCCCC1	206 to 208
Cl.O=c1[nH]c(=O)n(CCCCN2CCN(C(c3ccccc3)c3ccccc3)CC2)c2ccccc12	161 to 163
Cl.O=c1[nH]c(=O)n(CCCCN2CCC(OC(c3ccccc3)c3ccccc3)CC2)c2ncccc12	121 to 123
CS(=O)(=O)Nc1ccc2c(c1)c(=O)[nH]c(=O)n2CCCCN1CCC(OC(c2ccccc2)c2ccccc2)CC1.Cl	225 to 227
COC(=O)C(C)(C)c1ccc2c(c1)c(=O)[nH]c(=O)n2CCCCN1CCC(OC(c2ccccc2)c2ccccc2)CC1.Cl	223 to 225
COC(=O)C1(n2c(=O)c3ccccc3n(CCCCN3CCC(OC(c4ccccc4)c4ccccc4)CC3)c2=O)CCCC1.Cl	178 to 180
N#CCCCCn1c(=O)c2ccccc2n(CCCCN2CCC(OC(c3ccccc3)c3ccccc3)CC2)c1=O (as salt: hydrochloride) [Example 93, 2,4-Dioxo-1-[4-(4-diphenylmethoxypiperidino)butyl]-1,2,3,4-tetrahydroquinazoline-3-valeronitrile]	119 to 121
O=c1[nH]c(=O)n(CCCN2CCC(OC(c3ccccc3)c3ccccc3)CC2)c2ccccc12 [Example 1, 2,4-Dioxo-1-[3-(4-diphenylmethoxy-1-piperidinyl)propyl]-1,2,3,4-tetrahydroquinazoline]	149 to 151
O=c1[nH]c(=O)n(CCCCCN2CCC(OC(c3ccccc3)c3ccccc3)CC2)c2ccccc12 [Example 3, 2,4-Dioxo-1-[5-(4-diphenylmethoxy-1-piperidinyl)pentyl]-1,2,3,4-tetrahydroquinazoline]	173 to 174
O=c1[nH]c(=O)n(CCCCN2CCC(OC(c3ccccc3)c3ccccc3)CC2)c2cc(Cl)ccc12 [Example 9, 7-Chloro-2,4-dioxo-1-[4-(4-diphenylmethoxypiperidino)butyl]-1,2,3,4-tetrahydroquinazoline]	169 to 171
O=c1[nH]c(=O)n(CCCCN2CCC(OC(c3ccccc3)c3ccccc3)CC2)c2cc([N+](=O)[O-])ccc12 [Example 11, 2,4-Dioxo-1-[4-(4-diphenylmethoxypiperidino)butyl]-7-nitro-1,2,3,4-tetrahydroquinazoline]	214 to 215
COC(=O)Cn1c(=O)c2ccccc2n(CCCN2CCC(OC(c3ccccc3)c3ccccc3)CC2)c1=O [Example 14, Methyl 2,4-dioxo-1-[3-(4-diphenylmethoxypiperidino)propyl]-1,2,3,4-tetrahydroquinazoline-3-acetate]	109 to 110
COC(=O)Cn1c(=O)c2ccccc2n(CCCCN2CCC(OC(c3ccccc3)c3ccccc3)CC2)c1=O [Example 15, Methyl 2,4-dioxo-1-[4-(4-diphenylmethoxypiperidino)butyl]-1,2,3,4-tetrahydroquinazoline-3-acetate]	91 to 93
Nc1ccc2c(=O)[nH]c(=O)n(CCCCN3CCC(OC(c4ccccc4)c4ccccc4)CC3)c2c1 [Example 39, 7-Amino-2,4-dioxo-1-[4-(4-diphenylmethoxypiperidino)butyl]-1,2,3,4-tetrahydroquinazoline]	162 to 164

Compound	melting point [°C]
CN(C)c1ccc2c(c1)c(=O)[nH]c(=O)n2CCCCN1CCC(OC(c2ccccc2)c2ccccc2)CC1 [Example 42, 6-Dimethylamino-2,4-dioxo-1-[4-(4-diphenylmethoxypiperidino)butyl]-1,2,3,4-tetrahydroquinazoline]	165 to 167
O=C(O)CC(=O)Nc1ccc2c(c1)c(=O)[nH]c(=O)n2CCCCN1CCC(OC(c2ccccc2)c2ccccc2)CC1 [Example 48, [2,4-Dioxo-1-[4-(4-diphenylmethoxypiperidino)butyl]-1,2,3,4-tetrahydro-6-quinazolinyl]carbamoylacetic acid]	166 to 168
O=C(O)Cn1c(=O)c2ccccc2n(CCCN2CCC(OC(c3ccccc3)c3ccccc3)CC2)c1=O [Example 49, 2,4-Dioxo-1-[3-(4-diphenylmethoxypiperidino)propyl]-1,2,3,4-tetrahydroquinazoline-3-acetic acid]	170 to 172
O=C(O)Cn1c(=O)c2ccccc2n(CCCCN2CCC(OC(c3ccccc3)c3ccccc3)CC2)c1=O [Example 50, 2,4-Dioxo-1-[4-(4-diphenylmethoxypiperidino)butyl]-1,2,3,4-tetrahydroquinazoline-3-acetic acid]	184 to 186
O=C(O)CCn1c(=O)c2ccccc2n(CCCN2CCC(OC(c3ccccc3)c3ccccc3)CC2)c1=O [Example 51, 2,4-Dioxo-1-[3-(4-diphenylmethoxypiperidino)propyl]-1,2,3,4-tetrahydroquinazoline-3-propionic acid]	150 to 151
O=C(O)Cn1c(=O)n(CCCCN2CCC(OC(c3ccccc3)c3ccccc3)CC2)c(=O)c2ccccc21 [Example 72, 2,4-Dioxo-3-[4-(4-diphenylmethoxypiperidino)butyl]-1,2,3,4-tetrahydroquinazoline-1-acetic acid]	153 to 155
O=C(O)CCn1c(=O)n(CCCN2CCC(OC(c3ccccc3)c3ccccc3)CC2)c(=O)c2ccccc21 [Example 75, 2,4-Dioxo-3-[3-(4-diphenylmethoxypiperidino)propyl]-1,2,3,4-tetrahydroquinazoline-1-propionic acid]	237 to 238
O=C(O)CCn1c(=O)n(CCCCN2CCC(OC(c3ccccc3)c3ccccc3)CC2)c(=O)c2ccccc21 [Example 76, 2,4-Dioxo-3-[4-(4-diphenylmethoxypiperidino)butyl]-1,2,3,4-tetrahydroquinazoline-1-propionic acid]	110 to 112
O=C(O)CCCn1c(=O)n(CCCCN2CCC(OC(c3ccccc3)c3ccccc3)CC2)c(=O)c2ccccc21 [Example 78, 2,4-Dioxo-3-[4-(4-diphenylmethoxypiperidino)butyl]-1,2,3,4-tetrahydroquinazoline-1-butyric acid]	227 to 229
O=c1[nH]c2ccccc2c(=O)n1CCCN1CCC(OC(c2ccccc2)c2ccccc2)CC1 [Example 79, 2,4-Dioxo-3-[3-(4-diphenylmethoxypiperidino)propyl]-1,2,3,4-tetrahydroquinazoline]	173 to 175
O=c1[nH]c2ccccc2c(=O)n1CCCCN1CCC(OC(c2ccccc2)c2ccccc2)CC1 [Example 80, 2,4-Dioxo-3-[4-(4-diphenylmethoxypiperidino)butyl]-1,2,3,4-tetrahydroquinazoline]	140 to 142
COC(=O)c1ccc2c(=O)[nH]c(=O)n(CCCCN3CCC(OC(c4ccccc4)c4ccccc4)CC3)c2c1 [Example 85, Methyl 2,4-dioxo-1-[4-(4-diphenylmethoxypiperidino)butyl]-1,2,3,4-tetrahydroquinazoline-7-carboxylate]	192 to 194
O=C(O)c1ccc2c(c1)c(=O)[nH]c(=O)n2CCCCN1CCC(OC(c2ccccc2)c2ccccc2)CC1 [Example 89, 2,4-Dioxo-1-[4-(4-diphenylmethoxypiperidino)butyl]-1,2,3,4-tetrahydroquinazoline-6-carboxylic acid]	161 to 163
O=C(O)c1ccc2c(=O)[nH]c(=O)n(CCCCN3CCC(OC(c4ccccc4)c4ccccc4)CC3)c2c1 [Example 90, 2,4-Dioxo-1-[4-(4-diphenylmethoxypiperidino)butyl]-1,2,3,4-tetrahydroquinazoline-7-carboxylic acid]	177 to 179
N#Cn1c(=O)c2ccccc2n(CCCCN2CCC(OC(c3ccccc3)c3ccccc3)CC2)c1=O [Example 92, 2,4-Dioxo-1-[4-(4-diphenylmethoxypiperidino)butyl]-1,2,3,4-tetrahydroquinazoline-3-carbonitrile]	106 to 107
O=C(O)CCCCn1c(=O)c2cc(O)ccc2n(CCCCN2CCC(OC(c3ccccc3)c3ccccc3)CC2)c1=O [Example 105, 2,4-Dioxo-1-[4-(4-diphenylmethoxypiperidino)butyl]-6-hydroxy-1,2,3,4-tetrahydroquinazoline-3-valeric acid]	234 to 236

test system: guinea-pig eosinophils; assay: Chemotaxis inhibition assay: LTB4-induced chemotaxis in guinea-pig eosinophils; assay type: cell-based; settings: test substance 1×10^−5 M, LTB4 10^−8 M, 2 hours
Protocol: 1) Guinea-pig Eosinophil Preparation
Male Hartley guinea-pigs received 2 ml of equine serum (Bio-Whittaker, Inc) intraperitoneally once a week for successive 8 weeks. 48 hours after the last administration, 75 ml of physiological saline was injected into the peritoneal cavity, and the fluid was recovered and centrifuged at 400 G for 5 minutes. […] Erythrocytes in the isolated cell pellet, if any, were removed by hypotonic treatment (suspended in water for 30 seconds).
2) Chemotaxis Inhibition Assay
600 μl of LTB4 suspended in Hanks-Hepes-HSA (final concentration of 10^−8 M, Cascade Biochemical Ltd.) was placed in the lower compartment of a 24-well plate and kept at 37° C. for 30 minutes in a CO2 gas incubator. After mounting a Chemotaxicell (polycarbonate membrane, pore size 3 μm, thickness 10 μm), which served as an upper compartment, on the 24-well plate described above, 200 μl of eosinophil suspension (5×10^6 cells/ml), which had been incubated at 37° C. for 15 minutes in a thermostat chamber, was added to the upper compartment. After allowing to react for 2 hours in the CO2 gas incubator, the Chemotaxicell was removed, and 60 μl of 2% (w/v) EDTA solution in physiological saline was added to the lower compartment. After cooling on ice, the cells which underwent the chemotaxis into the lower compartment were counted using a blood cell counter (Coulter Counter (trade name)). In the procedure described above, the test substance was dissolved in N,N-dimethylformamide (DMF) and added to the upper and lower compartments at the final concentration of 10^−5 M.
% Chemotaxis inhibition=[…] [Equation 2]
The results are shown in [Table 2].

Compound	Inhibition (%) of LTB4-induced chemotaxis [%]
CC(=O)OCC(=O)Nc1ccc2c(c1)c(=O)[nH]c(=O)n2CCCCN1CCC(OC(c2ccccc2)c2ccccc2)CC1 [Example 46, 6-Acetoxyacetamide-2,4-dioxo-1-[4-(4-diphenylmethoxypiperidino)butyl]-1,2,3,4-tetrahydroquinazoline]	52
CN(CCc1ccccc1)C(=O)Cn1c(=O)c2ccccc2n(CCCCN2CCC(OC(c3ccccc3)c3ccccc3)CC2)c1=O.Cl [Example 56, 2,4-Dioxo-1-[4-(4-diphenylmethoxypiperidino)butyl]-N-methyl-N-(2-phenethyl)-1,2,3,4-tetrahydroquinazoline-3-acetamide hydrochloride]	73
